{
  "source": "patent US6166290A",
  "about": "“Glutathione-S-conjugate transport in plants” (The Trustees of the University of Pennsylvania, priority 1997, dated 2000)",
  "key": {"[1]": {"target": "T1, YCF1 (vacuolar membrane vesicles purified from DTY165 cells) (Saccharomyces cerevisiae, UniProt P39109)", "T1 construct": "endogenous in cells; host or cells: S. cerevisiae DTY165 (wild type YCF1), vacuolar membrane vesicles", "T1 sequence (P39109 whole entry)": "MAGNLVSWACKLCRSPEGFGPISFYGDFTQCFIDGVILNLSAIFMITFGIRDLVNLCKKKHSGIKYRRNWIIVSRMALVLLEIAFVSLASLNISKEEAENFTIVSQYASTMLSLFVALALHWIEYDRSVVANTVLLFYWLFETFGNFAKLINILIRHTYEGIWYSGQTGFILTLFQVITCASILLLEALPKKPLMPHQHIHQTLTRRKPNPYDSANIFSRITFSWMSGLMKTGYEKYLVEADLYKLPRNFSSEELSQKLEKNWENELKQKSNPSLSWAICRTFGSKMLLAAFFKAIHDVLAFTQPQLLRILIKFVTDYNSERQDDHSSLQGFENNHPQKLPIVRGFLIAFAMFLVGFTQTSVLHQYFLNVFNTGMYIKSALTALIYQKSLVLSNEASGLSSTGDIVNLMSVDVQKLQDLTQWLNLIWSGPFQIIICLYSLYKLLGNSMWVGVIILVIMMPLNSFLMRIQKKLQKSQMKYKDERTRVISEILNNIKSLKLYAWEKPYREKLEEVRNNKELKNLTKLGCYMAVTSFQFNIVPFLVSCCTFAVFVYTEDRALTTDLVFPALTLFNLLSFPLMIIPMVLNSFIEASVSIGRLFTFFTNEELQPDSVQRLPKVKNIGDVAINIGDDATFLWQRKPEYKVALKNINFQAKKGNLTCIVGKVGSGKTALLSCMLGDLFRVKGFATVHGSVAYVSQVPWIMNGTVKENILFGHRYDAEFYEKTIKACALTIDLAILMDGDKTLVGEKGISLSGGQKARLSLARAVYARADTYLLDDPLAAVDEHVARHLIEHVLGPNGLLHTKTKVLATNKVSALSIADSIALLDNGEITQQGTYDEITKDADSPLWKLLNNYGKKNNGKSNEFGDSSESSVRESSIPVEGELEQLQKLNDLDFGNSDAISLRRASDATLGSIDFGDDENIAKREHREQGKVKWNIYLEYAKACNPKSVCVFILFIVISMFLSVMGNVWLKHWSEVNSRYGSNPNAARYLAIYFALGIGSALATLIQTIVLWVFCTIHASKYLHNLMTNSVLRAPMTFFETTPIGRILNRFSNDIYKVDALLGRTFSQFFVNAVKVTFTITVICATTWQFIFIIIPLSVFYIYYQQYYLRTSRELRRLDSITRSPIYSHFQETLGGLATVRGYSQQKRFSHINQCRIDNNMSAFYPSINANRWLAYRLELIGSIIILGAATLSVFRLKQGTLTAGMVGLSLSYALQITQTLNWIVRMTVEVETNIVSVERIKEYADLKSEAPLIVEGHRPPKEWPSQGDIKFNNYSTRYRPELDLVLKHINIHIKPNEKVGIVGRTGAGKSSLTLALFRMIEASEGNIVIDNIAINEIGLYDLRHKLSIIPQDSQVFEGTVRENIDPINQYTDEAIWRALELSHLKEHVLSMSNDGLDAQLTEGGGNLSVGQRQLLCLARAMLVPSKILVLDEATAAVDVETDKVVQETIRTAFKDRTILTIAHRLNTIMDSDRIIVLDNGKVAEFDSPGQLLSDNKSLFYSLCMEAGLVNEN", "assay": "[3H]DNP-GS uptake by vacuolar membrane vesicles purified from DTY165 cells", "assay_type": "biochemical", "conditions": "for DNP-GS uptake plus the compound indicated: 66.2 μM DNP-GS, 3 mM MgATP (omitted with MgAMP-PNP), MgAMP-PNP 3 mM, bafilomycin A1 0.5 μM, FCCP 5 μM, gramicidin D 5 μM, NH4Cl 1 mM; for DNP-GS uptake as percentage of control plus the compound indicated: as Table 1 concentrations", "method": "(§1) For the routine preparation of vacuolar membrane vesicles, 15 ml of stationary phase cultures of DTY165 or DTY167 were diluted into 1-liter volumes of fresh YPD medium, grown for 24 hours at 30° C. to an OD600 nm of approximately 0.8 and collected by centrifugation. After washing with distilled water, the cells were converted to spheroplasts with Zymolyase 20T (ICN) (Kim et al., 1994, supra) and intact vacuoles were isolated by flotation centrifugation of spheroplast lysates on Ficoll 400 step gradients as described by Roberts et al. (1991, Methods. Enzymol. 194:644-661). Both the spheroplast lysis buffer and Ficoll gradients contained 2 mg/ml bovine serum albumin, 1 μg/ml aprotinin, 1 μg/ml leupeptin, 1 μg/ml pepstatin, and 1 mM PMSF to minimize proteolysis. The resulting vacuole fraction was vesiculated in 5 mM MgCl2, 25 mM KCl, 10 mM Tris-Mes (pH 6.9) containing 2 mg/ml bovine serum albumin, 1 μg/ml aprotinin, 1 μg/ml leupeptin, 1 μg/ml pepstatin, and 1 mM PMSF, pelleted by centrifugation at 37,000× g for 25 min, and resuspended in suspension medium (1.1 M glycerol, 2 mM dithiothreitol, 1 mM Tris-EGTA, 2 mg/ml bovine serum albumin, 1 μg/ml aprotinin, 1 μg/ml leupeptin, 1 μg/ml pepstatin, 1 mM PMSF, 5 mM Tris-Mes, pH 7.6) (Kim et al., 1995, J. Biol. Chem. 270:2630-2635).\n(§2) Unless otherwise indicated, [^3 H]DNP-GS uptake was measured at 25° C. in 200 μl reaction volumes containing 3 mM ATP, 3 mM MgSO4, 5 μM gramicidin-D, 10 mM creatine phosphate, 16 units/ml creatine kinase, 50 mM KC 1, 1 mg/ml bovine serum albumin, 400 mM sorbitol, 25 mM Tris-Mes (pH 8.0), and 66.2 μM [^3 H]DNP-GS (8.7 mCi/mmol) (Li et al., 1995, supra). […] Uptake was initiated by the addition of vacuolar membrane vesicles (10-15 μg of membrane protein), brief mixing of the samples on a vortex mixer and uptake was then allowed to proceed for 1-60 minutes. Uptake was terminated by the addition of 1 ml of ice-cold wash medium (400 mM sorbitol, 3 mM Tris-Mes, pH 8.0) and vacuum filtration of the suspension through prewetted Millipore HA cellulose nitrate membrane filters (pore diameter, 0.45 μm). The filters were rinsed twice with 1 ml of ice-cold wash medium and air-dried, and radioactivity was determined by liquid scintillation counting in BCS mixture (Amersham Corp.). Nonenergized [^3 H]DNP-GS uptake and extravesicular solution trapped on the filters were enumerated by the same procedure except that ATP and Mg^2 +were omitted from the uptake medium."}, "[2]": {"test_system": "vacuolar membrane vesicles purified from DTY167 cells (ycf1Δ mutant)", "assay_type": "biochemical, Saccharomyces cerevisiae", "conditions": "for DNP-GS uptake plus the compound indicated: 66.2 μM DNP-GS, 3 mM MgATP (omitted with MgAMP-PNP), MgAMP-PNP 3 mM, bafilomycin A1 0.5 μM, FCCP 5 μM, gramicidin D 5 μM, NH4Cl 1 mM; for DNP-GS uptake as percentage of control plus the compound indicated: as Table 1 concentrations", "method": "as §1, §2"}, "[3]": {"target": "T1, YCF1 (vacuolar membrane vesicles purified from DTY165 cells)", "assay": "biochemical", "assay_type": "biochemical", "method": "(§3) In experiments involving cadmium transport, dithiothreitol and EGTA were removed from the suspension medium to prevent the attenuation of YCF1-dependent Cd^2+ transport otherwise exerted by these compounds. Vesiculated vacuolar membranes were subjected to three cycles of 50-fold dilution into simplified suspension medium (1.1 M glycerol, 5 mM Tris-Mes, pH 8.0), centrifugation at 100,000× g for 35 minutes and resuspension in the same medium before use.\n(§4) Singly radiolabeled ^109 Cd.GSn and doubly radio-labeled ^109 Cd[^3 H].GS^n complexes were prepared by sequential gel-filtrationand anion-exchange chromatography of the reaction products generated by incubating 20 mM ^109 CdSO4 (78.4 mCi/mmol) with 40 mM GSH or 40 mM [^3 H]GSH (240 mCi/mmol) in 15 ml 10 mM phosphate buffer (pH 8.0) containing 150 mM KNO3 at 45° C. for 24 hours. For gel-filtration, 2 ml aliquots of the reaction mixture were applied to a column (40×1.5 cm ID) packed with water-equilibrated Sephadex G-1 5, eluted with deionized water and ^109 Cd and/or ^3 H in the fractions was measured by liquid scintillation counting. The fractions encompassed by each of the two ^109 Cd.GSn peaks identified were pooled, lyophilized and redissolved in 4 ml of loading buffer (5 mM Tris-Mes, pH 8.0). For anion-exchange chromatography, 0.5 ml aliquots of the resuspended lyophilizates from gel-filtration chromatography were applied to a Mono-Q HR5/5 column (Pharmacia) equilibrated with the same buffer. Elution was with a linear gradient of NaCl (0.5 ml/minute; 0-500 mM) dissolved in loading buffer. The individual fractions corresponding to the major peaks of ^109 Cd obtained from the Mono-Q column (one each for the peaks resolved by gel-filtration chromatography) were pooled, lyophilized and resuspended in 4 ml deionized water after liquid scintillation counting.\n(§5) MgATP-energized, uncoupler-insensitive ^109 Cd^2+ uptake by vacuolar membrane vesicles was measured at 25° C. in 200 μl reaction volumes containing 3 mM ATP, 3 mM MgSO4, 5 μM gramicidin-D, 10 mM creatine phosphate, 16 units/ml creatine kinase, 50 mM KCl, 400 mM sorbitol, 25 mM Tris-Mes (pH 8.0) and the indicated concentrations of ^109 CdSO4, GSH or ^109 Cd- and/or ^3 H-labeled purified Cd.GSn complexes as described herein except that the wash media contained 100 μM CdSO4 in addition to sorbitol (400 mM) and Tris-Mes (3 mM, pH 8.0)."}, "[4]": {"test_system": "vacuolar membrane vesicles purified from DTY167 cells (ycf1Δ mutant)", "assay_type": "biochemical, Saccharomyces cerevisiae", "method": "as §3, §4, §5"}, "[5]": {"conditions": "50 μM 109Cd.GS2, bafilomycin A1 0.5 μM, FCCP 5 μM, gramicidin-D 5 μM, NH4Cl 1 mM"}, "[6]": {"conditions": "as Table 7 concentrations, 10 min"}, "[7]": {"conditions": "5 μM gramicidin D, GSH, GSSG 1 mM, GS-conjugates 100 μM"}, "[8]": {"conditions": "5 μM gramicidin D, GSH, GSSG 1 mM, GS-conjugates 100 μM, 10 min"}, "[9]": {"conditions": "50 μM (as Cd), 5 μM gramicidin-D"}, "[10]": {"conditions": "5 μM gramicidin D, read-out: I50 for MgATP-dependent, uncoupler-insensitive DNP-GS uptake"}},
  "note": "Values joined by “and” are separate entries in the source; they are usually repeats but may differ in a detail not shown here. Identical values can stand only once.",
  "data": [
    {"compound": "Nc1ncnc2c1ncn2[C@@H]1O[C@H](COP(=O)(O)OP(=O)(O)NP(=O)(O)O)[C@@H](O)[C@H]1O", "note": "[MgAMP-PNP]", "values": [
      {"measurement": "DNP-GS uptake plus the compound indicated", "setting": "[1]", "result": "2.5 ± 0.5", "unit": "nmol/mg/10 minutes"},
      {"measurement": "DNP-GS uptake as percentage of control plus the compound indicated", "setting": "[1]; 10 min", "result": 3.2, "unit": "%"},
      {"measurement": "DNP-GS uptake plus the compound indicated", "setting": "[2]", "result": "1.4 ± 0.3", "unit": "nmol/mg/10 minutes"},
      {"measurement": "DNP-GS uptake as percentage of control plus the compound indicated", "setting": "[2]; 10 min", "result": 9.1, "unit": "%"}
    ]},
    {"compound": "CO/C1=C\\C(C)=C\\[C@@H](C)[C@@H](O)[C@@H](C)C/C(C)=C/C=C/[C@H](OC)[C@@H]([C@@H](C)[C@@H](O)[C@H](C)[C@@]2(O)C[C@@H](O)[C@H](C)[C@@H](C(C)C)O2)OC1=O", "note": "[Bafilomycin A1]", "values": [
      {"measurement": "DNP-GS uptake plus the compound indicated", "setting": "[1]", "result": "43.2 ± 1.0", "unit": "nmol/mg/10 minutes"},
      {"measurement": "DNP-GS uptake as percentage of control plus the compound indicated", "setting": "[1]; 10 min", "result": 55.6, "unit": "%"},
      {"measurement": "DNP-GS uptake plus the compound indicated", "setting": "[2]", "result": "4.3 ± 0.3", "unit": "nmol/mg/10 minutes"},
      {"measurement": "DNP-GS uptake as percentage of control plus the compound indicated", "setting": "[2]; 10 min", "result": 27.9, "unit": "%"},
      {"measurement": "109Cd.GS2 uptake plus addition", "setting": "[3]; [5]", "result": "81.8 ± 6.0", "unit": "nmol/mg/10 minutes"},
      {"measurement": "109Cd.GS2 uptake as percentage of control", "setting": "[3]; [6]", "result": 76.6, "unit": "%"},
      {"measurement": "decrease of MgATP-dependent Cd.GS2 uptake", "setting": "[3]; text to Table 7", "result": 22, "unit": "%"},
      {"measurement": "109Cd.GS2 uptake plus addition", "setting": "[4]; [5]", "result": "12.8 ± 3.6", "unit": "nmol/mg/10 minutes"},
      {"measurement": "109Cd.GS2 uptake as percentage of control", "setting": "[4]; [6]", "result": 74.0, "unit": "%"}
    ]},
    {"compound": "[N-]=[N+]=Nc1ccc(C(=O)CSC[C@H](NC(=O)CC[C@H](N)C(=O)O)C(=O)NCC(=O)O)cc1", "note": "[Azidophenacyl-GS]", "values": [
      {"measurement": "MgATP-dependent, uncoupler-insensitive DNP-GS uptake plus compound", "setting": "[1]; [7]", "result": "16.0 ± 1.4", "unit": "nmol/mg/10 minutes"},
      {"measurement": "MgATP-dependent, uncoupler-insensitive DNP-GS uptake as percentage of control", "setting": "[1]; [8]", "result": 33.5, "unit": "%"},
      {"measurement": "inhibition of DNP-GS uptake", "setting": "[1]; 100 μM compound", "result": "about 50%"},
      {"measurement": "MgATP-dependent, uncoupler-insensitive DNP-GS uptake plus compound", "setting": "[2]; [7]", "result": "5.2 ± 0.3", "unit": "nmol/mg/10 minutes"},
      {"measurement": "MgATP-dependent, uncoupler-insensitive DNP-GS uptake as percentage of control", "setting": "[2]; [8]", "result": 80.0, "unit": "%"}
    ]},
    {"compound": "mono(glutathionato)cadmium [LMW-Cd.GS]", "values": [
      {"measurement": "109Cd uptake of Mono-Q fraction", "setting": "[3]; [9]", "result": "4.4 ± 0.8", "unit": "nmol/mg/10 min"},
      {"measurement": "uptake of LMW-109Cd.GS", "setting": "[3]; all of the concentrations examined", "result": "negligible"},
      {"measurement": "109Cd uptake of Mono-Q fraction", "setting": "[4]; [9]", "result": 3.9, "unit": "nmol/mg/10 min"}
    ]},
    {"compound": "CC[C@]1(O)C[C@@H]2CN(CCc3c([nH]c4ccccc34)[C@@](C(=O)OC)(c3cc4c(cc3OC)N(C)[C@H]3[C@@](O)(C(=O)OC)[C@H](OC(C)=O)[C@]5(CC)C=CCN6CC[C@]43[C@@H]65)C2)C1", "note": "[Vinblastine]", "values": [
      {"measurement": "IC50", "setting": "[1]; [10]", "result": "89 µM and 88.8 µM"},
      {"measurement": "IC50", "setting": "[2]; [10]", "result": "> 500", "unit": "µM"}
    ]}
  ]
}
